{"source": "patent US10639313B2", "about": "“Compound for inhibition of delta-5-desaturase (D5D) and treatment of cancer and inflammation” (NDSU Research Foundation, priority 2017, dated 2020)", "key": {"HCA-7/C29 cells": {"system": "HCA-7/C29 cells", "assay": "8-HOA formation from cellular COX-2-catalyzed DGLA peroxidation (GC/MS) in HCA-7/C29", "type": "cell-based, human", "details": "10 μM compound, DGLA-enriched medium, threshold >0.5 μM in 10^6 cells, control 0.33", "experimental": "(§1) Colony formation assay was conducted in a total of three human cancer cell lines featuring high levels of COX-2, including HCA-7 (colon cancer), A549 (non-small cell lung cancer), BxPC-3 (pancreatic cancer), upon treatment of iminodibenzyl (10 μM). GC/MS was used to measure 8-HOA formation as described elsewhere."}, "D5D": {"molecular_target": "T1, D5D (Rattus norvegicus, UniProt Q920R3)", "T1 construct": "Rat liver microsomal assay was conducted", "T1 sequence (Q920R3 whole entry)": "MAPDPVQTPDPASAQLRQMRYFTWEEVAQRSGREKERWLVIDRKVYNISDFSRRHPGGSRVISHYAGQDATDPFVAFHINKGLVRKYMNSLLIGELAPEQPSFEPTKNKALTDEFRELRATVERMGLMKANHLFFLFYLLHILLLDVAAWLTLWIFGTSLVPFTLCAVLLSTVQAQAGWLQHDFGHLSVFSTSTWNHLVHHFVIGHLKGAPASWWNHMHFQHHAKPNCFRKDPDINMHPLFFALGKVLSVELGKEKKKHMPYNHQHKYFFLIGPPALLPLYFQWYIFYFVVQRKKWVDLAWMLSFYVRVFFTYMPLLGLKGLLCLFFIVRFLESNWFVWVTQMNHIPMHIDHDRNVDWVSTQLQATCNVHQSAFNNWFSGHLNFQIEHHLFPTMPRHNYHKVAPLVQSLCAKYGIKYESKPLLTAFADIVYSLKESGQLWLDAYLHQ", "assay": "Rat liver microsomal assay, conversion of DGLA to AA by D5D", "type": "biochemical"}, "HCA-7 xenograft tumor": {"system": "HCA-7 xenograft tumor", "assay": "Xenograft tumor model, nude mice bearing HCA-7", "type": "in vivo", "details": "HCA-7 tumor; for [8-HOA]: control 0.03", "experimental": "(§2) About two million of selected cancer cells, suspended in 50 μL of PBS, were implanted into hind flank of nude mice. Feeding with standard diet for two weeks after the cell implantation (to allow tumors reach the certain size), mice were then placed into the treatment groups. Twenty mice were randomly divided to four experimental groups (vehicle control, DGLA, […] inhibitor, and DGLA+D5D inhibitor combination) in each treatment regime to assess their anti-tumor responses. Two treatment regimes (e.g., treatment applied on every other day or every day up to 4-week) were assessed for their anti-tumor responses in HAC-7 and A459 tumor models. Every day treatment plan was listed in FIG. 9 as xenograft models and treatment example. Tumor growth was monitored twice a week using a digital caliper as well as via ultrasound image system for treatment outcome. Tumor volume was calculated: V=L×W2/2. At the endpoint (4-week treatment), the mice were euthanized, and the tumor tissues were collected, weighted, conducted for other analysis."}, "A549 xenograft tumor": {"system": "A549 xenograft tumor", "assay": "Xenograft tumor model, nude mice bearing A549", "type": "in vivo", "details": "for Tumor Growth Reduction % (vs. Control) / [8-HOA]: A549 (printed A459) tumor, every day, 4-week, DGLA 5 mg/mouse oral, iminodibenzyl 15 mg/kg i.p.; for [8-HOA]: control 0.02", "experimental": "as §2, with “analysis. Tumor Growth Reduction Rate (%, Tables 5, 7) in each experiment after 4-week treatment was used to assess their associated anti-tumor responses: […]” for “analysis.”"}, "[1]": {"system": "Lewis Lung Carcinoma Cells (LLC)", "assay": "Lewis Lung Carcinoma primary tumor growth and metastatic lung tumor formation", "type": "in vivo, C57/B6 mice", "details": "for Primary Tumor size (mm^3) / 8-HOA (μM) in Blood / Reduced Tumor Growth vs. V.C.: dose every day; for Primary Tumor size (mm^3) / Reduced Tumor Growth vs. V.C.: DGLA 5 mg/mouse, iminodibenzyl i.p. 15 mg/kg; for 8-HOA (μM) in Blood: vehicle 0.015; for Reduced Tumor Growth vs. V.C.: primary tumor; for mice that developed metastatic lung tumor: four-week treatment, Day 28 (combination up to Day 31)", "experimental": "One million Lewis Lung Carcinoma Cells (LLC,), suspended in 50 μL of PBS, were implanted into front/hind flanks (0.5 million each) of C57/B6 mice. A total of twenty […] mice were divided to four groups: six in vehicle control, six in DGLA+iminodibenzyl combination, three in DGLA (oral), and five in iminodibenzyl (i.p.) group. Every day treatment regimen was started one-week after LLC cells implanted into mice blank. Primary tumor growth was monitored twice a week using a digital caliper as well as via ultrasound image system for treatment outcome. Tumor volume was calculated: […] Tumor Growth Reduction Rate (%, Table 8) in each experiment after 4-week treatment was used to assess their associated anti-tumor responses: […]"}, "BxPC-3 xenograft tumor": {"system": "BxPC-3 xenograft tumor", "assay": "Xenograft tumor model, nude mice bearing BxPC-3", "type": "in vivo", "details": "BxPC-3 tumor, twice/week up to 4-week, gemcitabine 30 mg/kg, DGLA 8 mg/mouse, iminodibenzyl 25 mg/kg"}, "A549 cells": {"system": "A549 cells", "assay": "8-HOA formation from COX-2-catalyzed DGLA peroxidation (GC/MS) in A549", "type": "cell-based, human", "details": "A549 (A-495 [sic]) cells; 10 μM; DGLA-enriched media; control 0.29", "experimental": "as §1"}, "BxPC-3 cells": {"system": "BxPC-3 cells", "assay": "8-HOA formation from COX-2-catalyzed DGLA peroxidation (GC/MS) in BxPC-3", "type": "cell-based, human", "details": "10 μM, DGLA-enriched media, control 0.26", "experimental": "as §1"}, "HCA-7 (colon cancer)": {"system": "HCA-7 (colon cancer)", "assay": "Colony formation assay / cell survival, HCA-7", "type": "cell-based, human", "details": "for Cell Survival Rate: HCA-7/C29, DGLA-enriched media, control 100%", "experimental": "as §1"}, "[2]": {"system": "A549 (non-small cell lung cancer)", "assay": "Colony formation assay / cell survival, A549", "type": "cell-based, human", "details": "A549 (A-495 [sic]), 10 μM, DGLA-enriched media, control 100%", "experimental": "as §1"}, "[3]": {"system": "BxPC-3 (pancreatic cancer)", "assay": "Colony formation assay / cell survival, BxPC-3", "type": "cell-based, human", "details": "10 μM, DGLA-enriched media, control 100%", "experimental": "as §1"}, "[4]": {"details": "every day, 4-week, DGLA 5 mg/mouse oral, iminodibenzyl 15 mg/kg i.p."}, "[5]": {"details": "inhibition of D5D conversion of DGLA to AA, rat liver microsomes, read-out: IC50 (rat microsome)"}}, "note": "“And” between values parts separate entries of the source, which are not always exact repeats. Equal entries are not always repeated. Where two headings read alike, the source gives them in different places."}
{"compound": "CC(C)CCOc1ccc(N)cc1", "note": "[CP-24879, reference compound]", "values": [{"measurement": "[8-HOA] (HCA-7 cells)", "setting": "HCA-7/C29 cells", "value": 0.42, "unit": "µM"}]}
{"compound": "COc1cc(/C=C/C(=O)CC(=O)/C=C/c2ccc(O)c(OC)c2)ccc1O", "note": "[Cucurmin, curcumin, reference compound]", "values": [{"measurement": "IC50", "setting": "D5D", "value": 148, "unit": "nM"}, {"measurement": "[8-HOA] (HCA-7 cells)", "setting": "HCA-7/C29 cells", "value": 0.43, "unit": "µM"}]}
{"compound": "CCCCC/C=C\\C/C=C\\C/C=C\\CCCCCCC(=O)O", "note": "[DGLA, dihomo-γ-linolenic acid]", "values": [{"measurement": "Tumor Growth Reduction % (vs. Control)", "setting": "HCA-7 xenograft tumor; [4]", "value": "did not deliver any inhibitory effect on tumor growth"}, {"measurement": "[8-HOA]", "setting": "HCA-7 xenograft tumor; [4]", "value": 0.27, "unit": "µg/g"}, {"measurement": "Tumor Growth Reduction % (vs. Control)", "setting": "A549 xenograft tumor", "value": "did not deliver any inhibitory effect on tumor growth"}, {"measurement": "[8-HOA]", "setting": "A549 xenograft tumor", "value": 0.22, "unit": "µg/g"}, {"measurement": "Primary Tumor size (mm^3)", "setting": "[1]; Day 14, vehicle 128", "value": 106, "unit": "mm^3"}, {"measurement": "Primary Tumor size (mm^3)", "setting": "[1]; Day 21, vehicle 916", "value": 908, "unit": "mm^3"}, {"measurement": "Primary Tumor size (mm^3)", "setting": "[1]; Day 28, vehicle 2956", "value": 2631, "unit": "mm^3"}, {"measurement": "8-HOA (μM) in Blood", "setting": "[1]; Day 28", "value": 0.31, "unit": "µM"}, {"measurement": "Reduced Tumor Growth vs. V.C.", "setting": "[1]; Day 28", "value": "unable to inhibit primary tumor growth"}, {"measurement": "mice that developed metastatic lung tumor", "setting": "[1]", "value": "All three mice in this group developed lung tumors"}]}
{"compound": "Nc1ccn([C@@H]2O[C@H](CO)[C@@H](O)C2(F)F)c(=O)n1", "note": "[Gemcitabine]", "values": [{"measurement": "Tumor Growth Reduction % (vs. Control)", "setting": "BxPC-3 xenograft tumor", "value": 24, "unit": "%"}, {"measurement": "Tumor Growth Reduction % (vs. Control)", "setting": "BxPC-3 xenograft tumor; listed as gemcitabine", "value": "~24", "unit": "%"}]}
{"compound": "c1ccc2c(c1)CCc1ccccc1N2", "note": "[Iminodibenzyl, 10,11-dihydro-5H-dibenz[b,f]azepine]", "values": [{"measurement": "IC50", "setting": "D5D; [5]", "value": 104, "unit": "nM"}, {"measurement": "[8-HOA] (HCA-7 cells)", "setting": "HCA-7/C29 cells", "value": 0.65, "unit": "µM"}, {"measurement": "[8-HOA] (HCA-7 cells)", "setting": "HCA-7/C29 cells; listed as iminodibenzyl", "value": "> 0.5 µM and 0.65 µM"}, {"measurement": "[8-HOA]", "setting": "A549 cells", "value": 0.83, "unit": "µM"}, {"measurement": "[8-HOA]", "setting": "BxPC-3 cells", "value": 0.53, "unit": "µM"}, {"measurement": "Cell Survival Rate", "setting": "HCA-7 (colon cancer); 10 μM", "value": 66, "unit": "%"}, {"measurement": "Cell Survival Rate", "setting": "HCA-7 (colon cancer); 10 μM, listed as iminodibenyl", "value": 66, "unit": "%"}, {"measurement": "viability at 10 µM", "setting": "HCA-7 (colon cancer); Homo sapiens, HCA-7, 48 h, read-out: cell viability", "value": "~66", "unit": "%"}, {"measurement": "Cell Survival Rate", "setting": "[2]", "value": 22, "unit": "%"}, {"measurement": "Cell Survival Rate", "setting": "[2]; listed as iminodibenyl", "value": 22, "unit": "%"}, {"measurement": "Cell Survival Rate", "setting": "[3]", "value": 73, "unit": "%"}, {"measurement": "Cell Survival Rate", "setting": "[3]; listed as iminodibenyl", "value": 73, "unit": "%"}, {"measurement": "[PGE2] in tumors after 4-week treatment", "setting": "HCA-7 xenograft tumor; 15 mg/kg every day, vehicle control 2.0 μg/g", "value": 1.6, "unit": "µg/g"}, {"measurement": "[AA] in tumors after 4-week treatment", "setting": "HCA-7 xenograft tumor; 15 mg/kg every day, vehicle control 3.5 μg/g", "value": 2.2, "unit": "µg/g"}, {"measurement": "Tumor Growth Reduction % (vs. Control)", "setting": "HCA-7 xenograft tumor; [4]", "value": 17, "unit": "%"}, {"measurement": "[8-HOA]", "setting": "HCA-7 xenograft tumor; [4]", "value": 0.07, "unit": "µg/g"}, {"measurement": "Tumor Growth Reduction % (vs. Control)", "setting": "HCA-7 xenograft tumor; every day, 4-week, DGLA 5 mg/mouse oral, iminodibenzyl 15 mg/kg i.p., listed as Iminodibenzly", "value": 17, "unit": "%"}, {"measurement": "Tumor Growth Reduction % (vs. Control)", "setting": "A549 xenograft tumor", "value": 40, "unit": "%"}, {"measurement": "[8-HOA]", "setting": "A549 xenograft tumor", "value": 0.05, "unit": "µg/g"}, {"measurement": "Tumor Growth Reduction % (vs. Control)", "setting": "A549 xenograft tumor; listed as Iminodibenzly", "value": 40, "unit": "%"}, {"measurement": "[PGE2] in tumors after 4-week treatment", "setting": "A549 xenograft tumor; A549 tumor, 15 mg/kg every day, vehicle control 2.0 μg/g", "value": 1.5, "unit": "µg/g"}, {"measurement": "[AA] in tumors after 4-week treatment", "setting": "A549 xenograft tumor; A549 tumor, 15 mg/kg every day, vehicle control 3.7 μg/g", "value": 2.5, "unit": "µg/g"}, {"measurement": "Primary Tumor size (mm^3)", "setting": "[1]; Day 14, vehicle 128", "value": 87, "unit": "mm^3"}, {"measurement": "Primary Tumor size (mm^3)", "setting": "[1]; Day 21, vehicle 916", "value": 476, "unit": "mm^3"}, {"measurement": "Lung tumor(s) per mouse", "setting": "[1]; Day 21, metastatic lung tumors, 1 mouse, vehicle 4", "value": 0}, {"measurement": "Primary Tumor size (mm^3)", "setting": "[1]; Day 28, vehicle 2956", "value": 1153, "unit": "mm^3"}, {"measurement": "8-HOA (μM) in Blood", "setting": "[1]; Day 28", "value": 0.021, "unit": "µM"}, {"measurement": "Reduced Tumor Growth vs. V.C.", "setting": "[1]; Day 28, listed as Iminodibenzy, 15 mg/kg", "value": 58, "unit": "%"}, {"measurement": "Reduced Tumor Growth vs. V.C.", "setting": "[1]; Day 28, listed as iminodibenzyl, 15 mg/kg", "value": 58, "unit": "%"}, {"measurement": "mice that developed metastatic lung tumor", "setting": "[1]", "value": "1 of four mice"}]}
{"compound": "C1=Cc2ccccc2Nc2ccccc21", "note": "[Iminostilbene, 5H-dibenz[b,f]azepine]", "values": [{"measurement": "[8-HOA] (HCA-7 cells)", "setting": "HCA-7/C29 cells", "value": "did not promote 8-HOA formation"}, {"measurement": "suppression of cancer cell growth", "setting": "HCA-7 (colon cancer); 10 μM, colon cancer cells", "value": "unable to suppress cancer cell growth"}]}
{"compound": "O=c1[nH]cc(F)c(=O)[nH]1", "note": "[Molecule 5-FU, 5-fluorouracil, reference compound]", "values": [{"measurement": "Tumor Growth Reduction % (vs. Control)", "setting": "HCA-7 xenograft tumor; twice/week up to 4-week, 5-FU 30 mg/kg, DGLA 8 mg/mouse, iminodibenzyl 25 mg/kg", "value": 29, "unit": "%"}]}
{"compound": "c1cc2c(cc1[C@H]1OC[C@H]3[C@@H]1CO[C@@H]3c1ccc3c(c1)OCO3)OCO2", "note": "[Sesame, sesamin, reference compound]", "values": [{"measurement": "IC50", "setting": "D5D; [5]", "value": 346, "unit": "nM"}, {"measurement": "[8-HOA] (HCA-7 cells)", "setting": "HCA-7/C29 cells", "value": 0.33, "unit": "µM"}]}
